In the OligoGym collection:
HELM strings list units from the 5' end as sugar, base in round brackets, then linkage (d deoxyribose, r ribose, m 2'-O-methyl, p phosphodiester). Strings are as the collection lists them, not checked against the first reports. ss, as = sense and antisense strand

Details: siRNA
Also: test system not given here.

Substance	target mRNA knockdown
RNA1{m(A)p.r(U)p.m(C)p.r(C)p.m(U)p.r(G)p.m(C)p.r(A)p.m(G)p.r(A)p.m(A)p.r(G)p.m(A)p.r(A)p.m(G)p.r(C)p.m(C)p.r(U)p.m(C)p.r(T)p.r(T)}|RNA2{r(G)p.r(A)p.r(G)p.r(G)p.m(C)p.r(U)p.r(U)p.m(C)p.r(U)p.r(U)p.m(C)p.r(U)p.r(G)p.m(C)p.r(A)p.r(G)p.r(G)p.r(A)p.r(U)p.r(T)p.r(T)}$$$RNA1{StrandType:ss}|RNA2{StrandType:as}$	37%
RNA1{m(A)p.r(U)p.m(C)p.r(G)p.m(U)p.r(C)p.m(G)p.r(U)p.m(C)p.r(A)p.m(G)p.r(G)p.m(G)p.m(U)p.r(A)p.m(A)p.r(G)p.m(G)p.r(U)p.r(T)p.r(T)}|RNA2{r(A)p.r(C)p.r(C)p.r(U)p.r(U)p.r(A)p.r(C)p.r(C)p.r(C)p.r(U)p.r(G)p.r(A)p.r(C)p.r(G)p.m(A)p.r(C)p.m(G)p.r(A)p.m(U)p.r(T)p.r(T)}$$$RNA1{StrandType:ss}|RNA2{StrandType:as}$	34%
RNA1{m(A)p.r(U)p.m(C)p.r(U)p.m(A)p.r(C)p.m(C)p.r(C)p.m(A)p.r(G)p.m(C)p.r(U)p.m(C)p.r(U)p.m(C)p.r(C)p.m(C)p.r(U)p.m(U)p.r(T)p.r(T)}|RNA2{r(A)p.r(A)p.r(G)p.r(G)p.r(G)p.r(A)p.r(G)p.r(A)p.r(G)p.r(C)p.m(U)p.r(G)p.r(G)p.r(G)p.m(U)p.r(A)p.r(G)p.r(A)p.m(U)p.r(T)p.r(T)}$$$RNA1{StrandType:ss}|RNA2{StrandType:as}$	43%
RNA1{m(A)p.r(U)p.m(G)p.r(G)p.m(G)p.r(A)p.m(G)p.r(A)p.m(A)p.r(G)p.m(U)p.r(A)p.m(G)p.r(U)p.m(C)p.r(C)p.m(C)p.r(C)p.r(C)p.r(T)p.r(T)}|RNA2{r(G)p.r(G)p.r(G)p.r(G)p.r(G)p.r(A)p.r(C)p.r(U)p.r(A)p.r(C)p.r(U)p.r(U)p.r(C)p.r(U)p.r(C)p.r(C)p.r(C)p.r(A)p.r(U)p.r(T)p.r(T)}$$$RNA1{StrandType:ss}|RNA2{StrandType:as}$	71%
RNA1{m(C)p.m(G)p.m(U)p.m(A)p.m(C)p.m(G)p.r(C)p.r(G)p.r(G)p.r(A)p.r(A)p.r(U)p.r(A)p.r(C)p.r(U)p.r(U)p.r(C)p.r(G)p.r(A)p.r(T)p.r(T)}|RNA2{r(U)p.r(C)p.r(G)p.r(A)p.r(A)p.r(G)p.r(U)p.r(A)p.r(U)p.r(U)p.r(C)p.r(C)p.r(G)p.r(C)p.r(G)p.r(U)p.r(A)p.r(C)p.r(G)p.r(T)p.r(T)}$$$RNA1{StrandType:ss}|RNA2{StrandType:as}$	94.8%
RNA1{m(C)p.r(A)p.r(G)p.m(C)p.r(A)p.r(A)p.r(A)p.m(C)p.m(C)p.r(A)p.m(C)p.r(G)p.r(A)p.m(U)p.m(C)p.r(A)p.r(A)p.m(U)p.r(A)p.r(T)p.r(T)}|RNA2{m(U)p.r(A)p.m(U)p.m(U)p.r(G)p.r(A)p.m(U)p.m(C)p.r(G)p.m(U)p.r(G)p.r(G)p.m(U)p.m(U)p.m(U)p.r(G)p.m(C)p.m(U)p.r(G)p.r(T)p.r(T)}$$$RNA1{StrandType:ss}|RNA2{StrandType:as}$	5%
RNA1{m(C)p.r(A)p.r(G)p.r(A)p.r(G)p.m(C)p.r(A)p.r(A)p.m(U)p.m(U)p.r(G)p.m(U)p.m(U)p.m(U)p.r(A)p.m(C)p.m(C)p.m(U)p.r(A)p.r(T)p.r(T)}|RNA2{m(U)p.r(A)p.r(G)p.r(G)p.m(U)p.r(A)p.r(A)p.r(A)p.m(C)p.r(A)p.r(A)p.m(U)p.m(U)p.r(G)p.m(C)p.m(U)p.m(C)p.r(U)p.r(G)p.r(T)p.r(T)}$$$RNA1{StrandType:ss}|RNA2{StrandType:as}$	75%
RNA1{m(C)p.r(C)p.m(G)p.r(A)p.m(A)p.r(G)p.m(A)p.r(C)p.m(G)p.r(A)p.m(A)p.r(G)p.m(C)p.r(U)p.m(A)p.r(U)p.m(G)p.r(A)p.m(A)p.r(T)p.r(T)}|RNA2{r(U)p.r(U)p.r(C)p.r(A)p.r(U)p.r(A)p.m(G)p.r(C)p.r(U)p.r(U)p.r(C)p.m(G)p.r(U)p.r(C)p.r(U)p.r(U)p.r(C)p.m(G)p.m(G)p.r(T)p.r(T)}$$$RNA1{StrandType:ss}|RNA2{StrandType:as}$	51%
RNA1{m(C)p.r(C)p.m(G)p.r(A)p.m(G)p.r(A)p.m(G)p.r(C)p.m(U)p.r(C)p.m(U)p.r(C)p.m(C)p.r(U)p.m(A)p.r(C)p.m(C)p.r(U)p.m(U)p.r(T)p.r(T)}|RNA2{r(A)p.r(A)p.r(G)p.r(G)p.r(U)p.r(A)p.r(G)p.r(G)p.r(A)p.r(G)p.r(A)p.r(G)p.r(C)p.r(U)p.r(C)p.r(U)p.r(C)p.r(G)p.r(G)p.r(T)p.r(T)}$$$RNA1{StrandType:ss}|RNA2{StrandType:as}$	34%
RNA1{m(C)p.r(C)p.m(G)p.r(C)p.m(C)p.r(C)p.m(G)p.r(G)p.m(C)p.r(G)p.m(G)p.r(C)p.m(G)p.r(C)p.m(C)p.r(U)p.m(U)p.r(U)p.m(A)p.r(T)p.r(T)}|RNA2{r(U)p.r(A)p.r(A)p.r(A)p.r(G)p.r(G)p.r(C)p.r(G)p.r(C)p.r(C)p.r(G)p.r(C)p.r(C)p.r(G)p.r(G)p.r(G)p.r(C)p.r(G)p.r(G)p.r(T)p.r(T)}$$$RNA1{StrandType:ss}|RNA2{StrandType:as}$	49%
RNA1{m(C)p.r(C)p.m(U)p.r(C)p.m(C)p.r(C)p.m(C)p.r(A)p.m(U)p.r(C)p.m(C)p.r(C)p.m(C)p.r(U)p.m(U)p.r(U)p.m(U)p.r(A)p.m(A)p.r(T)p.r(T)}|RNA2{r(U)p.r(U)p.r(A)p.r(A)p.r(A)p.r(A)p.r(G)p.r(G)p.r(G)p.r(G)p.r(A)p.r(U)p.m(G)p.r(G)p.m(G)p.r(G)p.m(A)p.r(G)p.m(G)p.r(T)p.r(T)}$$$RNA1{StrandType:ss}|RNA2{StrandType:as}$	48%
RNA1{m(C)p.r(C)p.m(U)p.r(C)p.m(G)p.r(G)p.m(A)p.r(G)p.m(A)p.r(G)p.m(U)p.r(U)p.m(C)p.r(U)p.m(A)p.r(C)p.m(U)p.r(C)p.r(U)p.r(T)p.r(T)}|RNA2{r(A)p.r(G)p.r(A)p.r(G)p.r(U)p.r(A)p.r(G)p.r(A)p.r(A)p.r(C)p.r(U)p.r(C)p.r(U)p.r(C)p.r(C)p.r(G)p.r(A)p.r(G)p.r(G)p.r(T)p.r(T)}$$$RNA1{StrandType:ss}|RNA2{StrandType:as}$	34%
RNA1{m(C)p.r(G)p.m(A)p.r(G)p.m(U)p.r(G)p.m(U)p.r(C)p.m(U)p.r(A)p.m(A)p.r(C)p.m(G)p.r(G)p.m(G)p.r(A)p.m(G)p.r(C)p.m(C)p.r(T)p.r(T)}|RNA2{r(G)p.r(G)p.r(C)p.r(U)p.r(C)p.r(C)p.r(C)p.r(G)p.r(U)p.r(U)p.r(A)p.r(G)p.r(A)p.r(C)p.r(A)p.r(C)p.r(U)p.r(C)p.r(G)p.r(T)p.r(T)}$$$RNA1{StrandType:ss}|RNA2{StrandType:as}$	25%
RNA1{m(C)p.r(G)p.m(C)p.r(C)p.m(C)p.r(C)p.m(C)p.r(C)p.m(U)p.r(C)p.m(A)p.r(A)p.m(G)p.r(C)p.m(U)p.r(A)p.m(C)p.r(C)p.m(G)p.r(T)p.r(T)}|RNA2{r(C)p.r(G)p.r(G)p.r(U)p.r(A)p.r(G)p.r(C)p.r(U)p.r(U)p.r(G)p.r(A)p.r(G)p.r(G)p.r(G)p.r(G)p.r(G)p.r(G)p.r(C)p.r(G)p.r(T)p.r(T)}$$$RNA1{StrandType:ss}|RNA2{StrandType:as}$	44%
RNA1{m(C)p.r(G)p.m(G)p.r(A)p.m(U)p.r(C)p.m(U)p.r(A)p.m(C)p.r(A)p.m(C)p.r(C)p.m(U)p.r(U)p.m(C)p.r(A)p.m(A)p.r(G)p.m(A)p.r(T)p.r(T)}|RNA2{m(U)p.r(C)p.m(U)p.m(U)p.r(G)p.r(A)p.r(A)p.r(G)p.r(G)p.m(U)p.r(G)p.m(U)p.r(A)p.r(G)p.r(A)p.m(U)p.r(C)p.r(C)p.r(G)p.r(T)p.r(T)}$$$RNA1{StrandType:ss}|RNA2{StrandType:as}$	29%
RNA1{m(C)p.r(G)p.m(G)p.r(A)p.m(U)p.r(C)p.m(U)p.r(A)p.m(C)p.r(A)p.m(C)p.r(C)p.m(U)p.r(U)p.m(C)p.r(A)p.m(A)p.r(G)p.m(A)p.r(T)p.r(T)}|RNA2{r(U)p.r(C)p.r(U)p.r(U)p.r(G)p.r(A)p.r(A)p.r(G)p.r(G)p.r(U)p.r(G)p.r(U)p.m(A)p.r(G)p.m(A)p.r(U)p.m(C)p.r(C)p.m(G)p.r(T)p.r(T)}$$$RNA1{StrandType:ss}|RNA2{StrandType:as}$	46%
RNA1{m(C)p.r(U)p.m(A)p.r(C)p.m(C)p.r(U)p.m(U)p.r(C)p.m(U)p.r(C)p.m(C)p.r(U)p.m(C)p.r(U)p.m(U)p.r(C)p.m(U)p.r(C)p.m(C)p.r(T)p.r(T)}|RNA2{r(G)p.r(G)p.r(A)p.r(G)p.r(A)p.r(A)p.r(G)p.r(A)p.r(G)p.r(G)p.r(A)p.r(G)p.r(A)p.r(A)p.r(G)p.r(G)p.r(U)p.r(A)p.r(G)p.r(T)p.r(T)}$$$RNA1{StrandType:ss}|RNA2{StrandType:as}$	27%
RNA1{m(C)p.r(U)p.m(A)p.r(G)p.m(U)p.r(C)p.m(G)p.r(A)p.m(A)p.r(A)p.m(G)p.r(A)p.m(A)p.r(A)p.m(A)p.r(C)p.m(G)p.r(G)p.m(G)p.r(T)p.r(T)}|RNA2{r(C)p.r(C)p.r(C)p.r(G)p.r(U)p.r(U)p.r(U)p.r(U)p.r(C)p.r(U)p.r(U)p.r(U)p.r(C)p.r(G)p.m(A)p.r(C)p.r(U)p.m(A)p.r(G)p.r(T)p.r(T)}$$$RNA1{StrandType:ss}|RNA2{StrandType:as}$	23%
RNA1{m(C)p.r(U)p.m(C)p.r(A)p.m(A)p.r(A)p.m(U)p.r(C)p.m(A)p.r(A)p.m(G)p.r(G)p.m(C)p.r(C)p.m(G)p.r(G)p.m(A)p.r(G)p.m(U)p.r(T)p.r(T)}|RNA2{r(A)p.r(C)p.r(U)p.r(C)p.r(C)p.m(G)p.m(G)p.r(C)p.r(C)p.r(U)p.r(U)p.m(G)p.r(A)p.r(U)p.r(U)p.r(U)p.m(G)p.r(A)p.m(G)p.r(T)p.r(T)}$$$RNA1{StrandType:ss}|RNA2{StrandType:as}$	36%
RNA1{m(C)p.r(U)p.m(C)p.r(C)p.m(C)p.r(C)p.m(A)p.r(G)p.m(U)p.r(C)p.m(U)p.r(C)p.m(U)p.r(C)p.m(U)p.r(U)p.m(A)p.r(A)p.m(A)p.r(T)p.r(T)}|RNA2{r(U)p.r(U)p.r(U)p.r(A)p.r(A)p.r(G)p.r(A)p.r(G)p.r(A)p.r(G)p.r(A)p.r(C)p.r(U)p.r(G)p.r(G)p.r(G)p.r(G)p.r(A)p.r(G)p.r(T)p.r(T)}$$$RNA1{StrandType:ss}|RNA2{StrandType:as}$	51%
RNA1{m(C)p.r(U)p.m(C)p.r(C)p.m(G)p.r(A)p.m(C)p.r(A)p.m(G)p.r(A)p.m(U)p.r(G)p.m(A)p.r(A)p.m(G)p.r(G)p.m(A)p.r(A)p.m(A)p.r(T)p.r(T)}|RNA2{r(U)p.r(U)p.r(U)p.r(C)p.r(C)p.r(U)p.r(U)p.r(C)p.m(A)p.r(U)p.r(C)p.r(U)p.r(G)p.r(U)p.r(C)p.r(G)p.r(G)p.m(A)p.r(G)p.r(T)p.r(T)}$$$RNA1{StrandType:ss}|RNA2{StrandType:as}$	46%
